The record followed here is ChEMBL document CHEMBL1770133, “Design of potent and selective GPR119 agonists for type II diabetes” (Bioorg Med Chem Lett, 2011).

In brackets after ≈: the same amount, converted by molar mass.

The EC50 is the concentration that produces a half-maximal response. Broadly, the IC50 is the concentration at which inhibition is half-maximal. A lower IC50 goes with inhibition by little substance. What is called solubility is the concentration that dissolves in the medium under given conditions. Low values mean a poorly soluble substance, high ones a readily soluble substance. The half-life is how long it takes for the measured level to halve.

In data set [1] the test system is Mus musculus. The data set can be described thus: Antidiabetic activity in high fat fed C57BL/6 mouse assessed as change in AUC of blood glucose level at 30 mg/kg, po qd administered 1 hr before glucose challenge measured up to 120 mins by oral glucose tolerance test relative to control. Format: functional, C57BL6.
Data set [2] deals with Mus musculus. The data set can be described thus: Antidiabetic activity in high fat fed C57BL/6 mouse assessed as change in AUC of blood glucose level at 1 mg/kg, po qd administered 1 hr before glucose challenge measured up to 120 mins by oral glucose tolerance test relative to control. The class given is functional, C57BL6.
The test system of data set [3] is Mus musculus. The data set can be described thus: Antidiabetic activity in high fat fed C57BL/6 mouse assessed as change in AUC of blood glucose level at 3 mg/kg, po qd administered 1 hr before glucose challenge measured up to 120 mins by oral glucose tolerance test relative to control. Format: functional, C57BL6.
Data set [4] deals with Mus musculus. The data set can be described thus: Antidiabetic activity in high fat fed C57BL/6 mouse assessed as change in AUC of blood glucose level at 10 mg/kg, po qd administered 1 hr before glucose challenge measured up to 120 mins by oral glucose tolerance test relative to control. The class given is functional, C57BL6.
Data set [5] has as its target T1, Glucose-dependent insulinotropic receptor (Homo sapiens, UniProt Q8TDV5).
T1 sequence (Q8TDV5 whole entry): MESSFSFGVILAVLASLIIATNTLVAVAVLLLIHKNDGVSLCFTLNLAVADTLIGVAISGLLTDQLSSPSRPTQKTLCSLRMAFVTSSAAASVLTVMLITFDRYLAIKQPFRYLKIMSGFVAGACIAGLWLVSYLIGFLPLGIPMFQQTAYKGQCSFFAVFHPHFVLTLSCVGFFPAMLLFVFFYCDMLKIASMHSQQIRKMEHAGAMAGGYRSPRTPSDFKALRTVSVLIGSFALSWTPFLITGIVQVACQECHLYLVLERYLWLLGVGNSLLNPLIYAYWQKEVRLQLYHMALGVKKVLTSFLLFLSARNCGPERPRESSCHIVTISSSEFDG
The data set can be described thus: Agonist activity at human GPR119 expressed in CHO cells co-expressing Galpha15 assessed as increase of intracellular cAMP accumulation after 60 mins by HTRF assay. The class given is functional, cell-based. On the technique in general: cAMP levels reflect the balance of adenylyl cyclase and phosphodiesterase activity.

The target in data set [6] is T2, Glucose-dependent insulinotropic receptor (Mus musculus, UniProt Q7TQP3).
T2 sequence (Q7TQP3 whole entry): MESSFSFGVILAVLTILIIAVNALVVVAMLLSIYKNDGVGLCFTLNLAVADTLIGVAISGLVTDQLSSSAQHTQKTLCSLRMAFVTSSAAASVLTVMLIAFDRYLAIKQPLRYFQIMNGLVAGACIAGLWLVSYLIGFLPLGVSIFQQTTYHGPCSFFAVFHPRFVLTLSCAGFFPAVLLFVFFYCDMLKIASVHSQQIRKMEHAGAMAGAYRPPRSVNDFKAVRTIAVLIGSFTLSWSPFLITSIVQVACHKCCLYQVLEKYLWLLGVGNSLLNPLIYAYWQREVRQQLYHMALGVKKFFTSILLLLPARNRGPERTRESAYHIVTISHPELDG
The data set can be described thus: Agonist activity at mouse GPR119 expressed in CHO cells co-expressing Galpha15 assessed as increase of intracellular cAMP accumulation after 60 mins by HTRF assay. The class given is functional, cell-based.

Data set [7] deals with Voltage-gated inwardly rectifying potassium channel KCNH2 (Homo sapiens, UniProt Q12809). Briefly: Inhibition of human ERG by patch clamp technique. In general terms: The patch-clamp technique gives a direct electrical read-out from membranes.
Chain of Voltage-gated inwardly rectifying potassium channel KCNH2 (Q12809 whole entry): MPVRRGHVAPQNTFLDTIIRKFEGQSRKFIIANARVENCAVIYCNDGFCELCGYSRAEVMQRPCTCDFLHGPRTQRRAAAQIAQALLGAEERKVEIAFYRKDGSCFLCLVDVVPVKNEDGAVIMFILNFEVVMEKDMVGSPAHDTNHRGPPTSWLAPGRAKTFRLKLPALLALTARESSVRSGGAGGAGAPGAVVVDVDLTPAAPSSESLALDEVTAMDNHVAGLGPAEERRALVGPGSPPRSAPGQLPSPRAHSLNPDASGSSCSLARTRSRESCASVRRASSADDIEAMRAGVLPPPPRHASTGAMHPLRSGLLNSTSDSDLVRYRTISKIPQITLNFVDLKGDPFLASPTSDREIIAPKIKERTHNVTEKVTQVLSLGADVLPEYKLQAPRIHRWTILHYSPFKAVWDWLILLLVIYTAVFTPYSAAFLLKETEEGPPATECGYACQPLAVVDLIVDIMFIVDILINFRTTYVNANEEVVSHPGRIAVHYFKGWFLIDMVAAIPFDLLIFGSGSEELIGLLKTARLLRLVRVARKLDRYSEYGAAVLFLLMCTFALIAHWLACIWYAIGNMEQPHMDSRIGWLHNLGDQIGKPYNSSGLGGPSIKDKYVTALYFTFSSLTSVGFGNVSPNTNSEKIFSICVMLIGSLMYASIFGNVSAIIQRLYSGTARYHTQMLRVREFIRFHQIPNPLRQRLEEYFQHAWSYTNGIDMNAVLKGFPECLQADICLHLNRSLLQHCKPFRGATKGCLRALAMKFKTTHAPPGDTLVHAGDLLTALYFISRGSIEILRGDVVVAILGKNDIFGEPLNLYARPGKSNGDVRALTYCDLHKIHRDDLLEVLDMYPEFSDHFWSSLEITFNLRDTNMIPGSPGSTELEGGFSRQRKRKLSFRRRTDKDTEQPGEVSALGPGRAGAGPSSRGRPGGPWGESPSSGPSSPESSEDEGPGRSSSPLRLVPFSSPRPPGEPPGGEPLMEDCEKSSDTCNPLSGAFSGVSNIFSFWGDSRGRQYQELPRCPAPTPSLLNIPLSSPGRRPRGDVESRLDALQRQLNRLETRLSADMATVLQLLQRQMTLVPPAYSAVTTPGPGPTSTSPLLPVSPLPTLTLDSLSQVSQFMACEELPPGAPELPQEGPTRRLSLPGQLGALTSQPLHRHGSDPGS
The nature of data set [8]: Solubility of compound in PEG400 after 3 to 7 days. Format: physicochemical.
Data set [9] deals with Mus musculus. The data set can be described thus: Antidiabetic activity in high fat fed po dosed C57BL/6 mouse assessed as change in AUC of blood glucose level administered 1 hr before glucose challenge measured up to 120 mins by oral glucose tolerance test. The class given is functional. The note with it: C57BL6, Blood, read-out: MED.
Data set [10] in a line: Volume of distribution at steady state in mouse at 1 mg/kg, iv and 10 mg/kg, po. Particulars: in vivo, read-out: Vdss. The class given is ADME, organism-based.
Data set [11] can be described thus: Half life in mouse at 1 mg/kg, iv and 10 mg/kg, po. Format: ADME, organism-based. The note with it: in vivo.
The subject of data set [12] is Mus musculus. The data set can be described thus: Dose normalized AUC in mouse at 1 mg/kg, iv and 10 mg/kg, po. The class given is ADME, organism-based. The note with it: in vivo.
Data set [13] is filed under the species Canis familiaris. The data set can be described thus: Cardiotoxicity in dog assessed as QTc prolongation. The class given is toxicity, organism-based, Canis lupus familiaris. Particulars: in vivo.
A short description of data set [14]: Clearance in mouse at 1 mg/kg, iv and 10 mg/kg, po. The class given is ADME, organism-based. Particulars: in vivo.

As to `Cc1cnc(N2CCC(C3CCN(c4cc(C)nc(C#N)n4)CC3)CC2)cn1`, the Activity worked out at 35% in [1], 7% in data set [2], 26% in data set [3] and 30% in data set [4]. Moreover, the EC50 came to 19 nM in [5] and 64 nM in data set [6].
In turn, `Clc1cnc(N2CCC([C@H]3C[C@H]3CCOc3ccc(-n4ccnn4)cn3)CC2)nc1` gave an IC50 in data set [7] of 44000 nM. The solubility in data set [8] is 11.4 mg/mL (≈ 26.8 mM). For the same compound, the minimal effective dose in data set [9] was 1 mg/kg. The values for the EC50 in [5] and in data set [6] were 2 nM and 4 nM, respectively.
Regarding `CS(=O)(=O)c1ccc(OCC[C@@H]2C[C@@H]2C2CCN(c3ncc(Cl)cn3)CC2)nc1`, the Vd in data set [10] was 2.1 L/kg. Moreover, the half-life in data set [11] was 12.4 h. Besides, the AUC in data set [12] stood at 12.1 µM·kg·h/mg. In addition, in data set [7], the IC50 amounted to 19000 nM. The solubility in [8] came out at 7.1 mg/mL (≈ 16.2 mM). The minimal effective dose in data set [9] stood at 1 mg/kg. Besides, the Activity result in data set [13] is on record as “Non-toxic”. The clearance in data set [14] was determined as 2.1 mL/min/kg. The EC50 in [5] and in [6] was 4 nM each time.
Compound `Cc1cnc(N2CCC([C@H]3C[C@H]3CCOc3nc(C)cc(C#N)n3)CC2)nc1` gave a solubility in [8] of 24.8 mg/mL (≈ 65.5 mM). Also, in [9], the minimal effective dose turned out to be 0.01 mg/kg. In [13], the Activity result is reported as “Toxic”. For the same compound, the EC50 in data set [5] and in data set [6] was 2 nM in each case.
For the compound `CS(=O)(=O)c1ccc(N2CCC(C3CCN(c4ccc(Cl)cn4)CC3)CC2)cc1`, the Vd in [10] was 2.3 L/kg. Also, the half-life in [11] is 13.5 h. Moreover, the AUC in [12] was determined as 19.3 µM·kg·h/mg. Besides, the clearance in data set [14] was 2 mL/min/kg. For the same compound, the EC50 was found to be 48 nM in [5] and 131 nM in data set [6].
